Experimental data taken from patent publication US10968215B2 (SHANGHAI HAIHE PHARMACEUTICAL CO., LTD., priority 2016, dated 2021).
Like-named read-outs stand apart in the source and are kept apart here.

Key:
[1] = biological target: PRC2 complex (EZH2/EED/SUZ12/RbAp48/AEBP2) (Homo sapiens (Human), UniProt Q15910); assay: Activity of a compound to PRC2 complex (EZH2 wild type), ELISA; type: biochemical; settings: class symbols
Description: Determination of the Activity of a Compound to PRC2 Complex (EZH2 Wild Type):
Detection Method: Enzyme-Linked Immunosorbent Assay (ELISA)
MATERIALS: The PRC2 complex (EZH2/EED/SUZ12/RbAp48/AEBP2) histone methyltransferase was purchased from BPS; the substrate Biotin H3 (21-44) me0 was produced by AnaSpec; SAM was purchased from Sigma, which is GL Biochem product; methyl donor SAM was purchased from Sigma-aldrich; H3K27me3 antibody was purchased from BPS.
Experimental method: avdin of a final concentration of 100 nM was used to coat 96-well plate at 10 μL/well, placed in a wet box and shaken overnight, and then 100 μL 3% BSA per well was added and blocked for 1 h at room temperature. PRC2 complex (EZH2/EED/SUZ12/RbAp48/AEBP2), H3 (21-44) me0 substrate, methyl donor SAM and compound were added into each well of the blocked 96-well plate. The total reaction system was 100 μL, placed in a wet box and allowed to react for 1 h on shaker at room temperature. The plate was washed with TBS-T [20 mM Tris-HCl (pH 7.2-7.4, room temperature), 150 mM NaCl, 0.1% (v/v) Tween-20] for 3 times, blocked with 3% BSA for 10 min, and anti-H3K27me3 antibody was added and incubated for 1 h in a wet box on shaker at room temperature. The plate was washed again with TBS-T for 3 times, and blocked with 3% BSA per well for 10 min. Horseradish peroxidase-labeled secondary antibody was added and reacted in a wet box at room temperature for 1 h, and finally, washed with TBS-T for 3 times. 2 mg/ml OPD color developing solution (1004/well) was added for coloring, and the reaction was stopped with 2M H2SO4 (50 μL/well). The plate was read by a plate reader at 490 nm and IC50 of the compound was calculated using SoftMax Pro 5.4.1 software.

[2] = biological target: PRC2 complex (EZH2 Y641F/EED/SUZ12/RbAp48/AEBP2) (Homo sapiens (Human), UniProt Q15910, Y641F); assay: Activity of a compound to PRC2 complex (EZH2 Y641F), HTRF
Protocol: Determination of the Activity of a Compound to PRC2 Complex (EZH2Y641F):
Detection Method: Homogeneous Time-Resolved Fluorescence (HTRF)
Reaction was conducted in darkness at room temperature for 4 h. […] The IC50 values of the compounds were calculated using SoftMax Pro 5.4.1 software.

[3] = read-out: IC50 (EZH2_Y641F), EZH2 Y641F PRC2 complex, HTRF, class symbols

Sequence of PRC2 complex (EZH2 Y641F/EED/SUZ12/RbAp48/AEBP2) (Q15910 whole entry Y641F): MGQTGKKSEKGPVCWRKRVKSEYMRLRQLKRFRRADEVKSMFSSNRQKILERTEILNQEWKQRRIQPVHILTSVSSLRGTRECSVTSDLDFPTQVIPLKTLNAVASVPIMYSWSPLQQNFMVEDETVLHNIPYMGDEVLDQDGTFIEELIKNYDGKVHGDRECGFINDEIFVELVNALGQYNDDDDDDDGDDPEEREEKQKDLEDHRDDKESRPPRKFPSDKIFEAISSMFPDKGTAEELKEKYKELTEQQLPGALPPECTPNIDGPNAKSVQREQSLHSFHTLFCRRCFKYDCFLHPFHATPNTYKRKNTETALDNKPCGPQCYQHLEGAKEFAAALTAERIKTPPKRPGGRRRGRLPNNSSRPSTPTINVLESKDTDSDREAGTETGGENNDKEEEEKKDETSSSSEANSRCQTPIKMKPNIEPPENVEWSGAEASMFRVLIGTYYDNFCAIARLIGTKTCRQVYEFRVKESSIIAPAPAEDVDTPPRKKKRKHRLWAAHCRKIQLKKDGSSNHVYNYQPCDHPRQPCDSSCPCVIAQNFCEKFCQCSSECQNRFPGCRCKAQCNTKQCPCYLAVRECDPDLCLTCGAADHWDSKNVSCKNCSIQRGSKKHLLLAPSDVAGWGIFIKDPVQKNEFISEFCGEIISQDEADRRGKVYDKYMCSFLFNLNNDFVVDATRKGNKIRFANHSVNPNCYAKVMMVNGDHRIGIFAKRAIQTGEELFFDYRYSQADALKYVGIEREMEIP
Sequence of PRC2 complex (EZH2 Y641F/EED/SUZ12/RbAp48/AEBP2) (O75530 whole entry partner): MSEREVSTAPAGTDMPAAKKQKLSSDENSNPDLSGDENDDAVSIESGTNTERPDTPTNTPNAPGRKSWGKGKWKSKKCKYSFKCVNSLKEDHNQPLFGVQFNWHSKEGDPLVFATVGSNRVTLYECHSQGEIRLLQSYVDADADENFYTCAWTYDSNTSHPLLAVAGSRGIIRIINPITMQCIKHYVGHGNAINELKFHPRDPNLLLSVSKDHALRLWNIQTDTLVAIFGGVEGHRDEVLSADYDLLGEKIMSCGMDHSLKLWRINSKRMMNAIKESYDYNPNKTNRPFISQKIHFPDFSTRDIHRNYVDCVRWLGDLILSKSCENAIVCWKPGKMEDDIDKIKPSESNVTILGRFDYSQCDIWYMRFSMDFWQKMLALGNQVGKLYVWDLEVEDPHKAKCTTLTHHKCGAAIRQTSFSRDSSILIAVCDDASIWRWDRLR
Sequence of PRC2 complex (EZH2 Y641F/EED/SUZ12/RbAp48/AEBP2) (Q15022 whole entry partner): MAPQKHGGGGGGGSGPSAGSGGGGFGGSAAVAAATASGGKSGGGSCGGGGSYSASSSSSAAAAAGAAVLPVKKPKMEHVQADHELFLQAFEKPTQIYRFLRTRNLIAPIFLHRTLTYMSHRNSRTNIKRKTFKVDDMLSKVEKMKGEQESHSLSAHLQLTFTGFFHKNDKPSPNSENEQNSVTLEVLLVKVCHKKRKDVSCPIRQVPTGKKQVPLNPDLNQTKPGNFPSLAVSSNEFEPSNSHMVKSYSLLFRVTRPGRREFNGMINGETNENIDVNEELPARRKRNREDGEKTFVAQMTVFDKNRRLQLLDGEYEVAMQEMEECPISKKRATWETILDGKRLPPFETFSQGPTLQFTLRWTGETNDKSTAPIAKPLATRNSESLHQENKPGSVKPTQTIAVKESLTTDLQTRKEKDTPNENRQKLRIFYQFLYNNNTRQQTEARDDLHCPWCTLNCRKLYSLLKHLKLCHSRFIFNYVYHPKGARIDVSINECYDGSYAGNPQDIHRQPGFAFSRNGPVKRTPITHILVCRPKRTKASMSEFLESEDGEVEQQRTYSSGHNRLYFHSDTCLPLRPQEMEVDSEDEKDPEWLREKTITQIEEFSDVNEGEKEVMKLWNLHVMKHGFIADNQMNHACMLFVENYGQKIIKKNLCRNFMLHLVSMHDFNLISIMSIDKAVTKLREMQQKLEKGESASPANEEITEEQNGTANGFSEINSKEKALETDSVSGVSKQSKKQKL
Sequence of PRC2 complex (EZH2 Y641F/EED/SUZ12/RbAp48/AEBP2) (Q09028 whole entry partner): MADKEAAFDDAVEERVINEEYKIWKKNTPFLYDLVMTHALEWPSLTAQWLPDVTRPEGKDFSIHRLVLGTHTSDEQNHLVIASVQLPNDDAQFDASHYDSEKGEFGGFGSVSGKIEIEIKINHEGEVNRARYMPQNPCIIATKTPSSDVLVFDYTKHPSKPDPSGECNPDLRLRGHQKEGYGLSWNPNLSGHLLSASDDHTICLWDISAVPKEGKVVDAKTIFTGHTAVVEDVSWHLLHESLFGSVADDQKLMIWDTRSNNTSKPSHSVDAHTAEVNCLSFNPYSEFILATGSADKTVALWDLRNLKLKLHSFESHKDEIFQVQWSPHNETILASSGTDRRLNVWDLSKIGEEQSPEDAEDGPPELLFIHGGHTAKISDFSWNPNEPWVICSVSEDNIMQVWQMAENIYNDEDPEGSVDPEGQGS
Sequence of PRC2 complex (EZH2 Y641F/EED/SUZ12/RbAp48/AEBP2) (Q6ZN18 whole entry partner): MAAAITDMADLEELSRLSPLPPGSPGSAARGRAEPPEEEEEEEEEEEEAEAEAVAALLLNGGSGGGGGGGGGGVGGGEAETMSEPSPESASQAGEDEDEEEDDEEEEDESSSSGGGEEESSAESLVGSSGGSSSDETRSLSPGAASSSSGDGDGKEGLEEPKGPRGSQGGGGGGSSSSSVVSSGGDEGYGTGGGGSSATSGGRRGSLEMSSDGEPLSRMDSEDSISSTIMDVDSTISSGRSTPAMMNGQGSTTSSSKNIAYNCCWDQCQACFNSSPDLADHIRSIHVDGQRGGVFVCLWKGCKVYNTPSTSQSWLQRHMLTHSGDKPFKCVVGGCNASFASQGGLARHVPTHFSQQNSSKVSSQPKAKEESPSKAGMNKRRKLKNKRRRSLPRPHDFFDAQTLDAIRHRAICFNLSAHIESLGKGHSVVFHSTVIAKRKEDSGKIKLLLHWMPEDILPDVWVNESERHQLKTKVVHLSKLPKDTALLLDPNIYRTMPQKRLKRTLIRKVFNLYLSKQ
Sequence of PRC2 complex (EZH2/EED/SUZ12/RbAp48/AEBP2) (Q15910 whole entry): as the sequence (Q15910 whole entry Y641F) above, with F641Y counted along it
Sequence of PRC2 complex (EZH2/EED/SUZ12/RbAp48/AEBP2) (O75530 whole entry partner): as the sequence (O75530 whole entry partner) above
Sequence of PRC2 complex (EZH2/EED/SUZ12/RbAp48/AEBP2) (Q15022 whole entry partner): as the sequence (Q15022 whole entry partner) above
Sequence of PRC2 complex (EZH2/EED/SUZ12/RbAp48/AEBP2) (Q09028 whole entry partner): as the sequence (Q09028 whole entry partner) above
Sequence of PRC2 complex (EZH2/EED/SUZ12/RbAp48/AEBP2) (Q6ZN18 whole entry partner): as the sequence (Q6ZN18 whole entry partner) above

Compound	IC50 [1] [nM]	IC50 [2, 3] [nM]	IC50 [2] [nM]
Cc1cc(C)c(CNC(=O)c2cc3c(-c4ccc(N)nc4)ccn3c([C@H](C)N3CCN(CC(F)(F)F)CC3)c2C)c(=O)[nH]1 (single isomer, unassigned) [Compound 159, (S)-1-(6-aminopyridin-3-yl)-N-((4,6-dimethyl-2-oxo-1,2-dihydropyridin-3-yl)methyl)-6-methyl-5-(1-(4-(2,2,2-trifluoroethyl)piperazin-1-yl)ethyl)indolizine-7-carboxamide or (R) 1-(6-aminopyridin-3-yl)-N-((4,6-dimethyl-2-oxo-1,2-dihydropyridin-3-yl)methyl)-6-methyl-5-(1-(4-(2,2,2-trifluoroethyl)piperazin-1-yl)ethyl)indolizine-7-carboxamide]	< 100	< 100	
Cc1cc(C)c(CNC(=O)c2cc3c(-c4ccc(N)nc4)ccn3c(C(C)N3CCN(CC(F)(F)F)CC3)c2C)c(=O)[nH]1 (stereo not shown) [Compound 158, 1-(6-aminopyridin-3-yl)-N-((4,6-dimethyl-2-oxo-1,2-dihydropyridin-3-yl)methyl)-6-methyl-5-(1-(4-(2,2,2-trifluoroethyl)piperazin-1-yl)ethyl)indolizine-7-carboxamide]	< 100		< 100
C#CCOC(C)c1c(C)c(C(=O)NCc2c(C)cc(C)[nH]c2=O)cc2cccn12 (stereo not shown) [Example 4, N-((4,6-dimethyl-2-oxo-1,2-dihydropyridin-3-yl)methyl)-6-methyl-5-(1-(prop-2-yn-1-yloxy)ethyl)indolizine-7-carboxamide]	100 to 1000	100 to 1000	
Cc1cc(C)c(CNC(=O)c2cc3cccn3c(C(C)OCc3ccc(F)cc3)c2C)c(=O)[nH]1 (stereo not shown) [Example 10]	100 to 1000	100 to 1000	
Cc1cc(C)c(CNC(=O)c2cc3cccn3c(C(C)OCc3ccccc3F)c2C)c(=O)[nH]1 (stereo not shown) [Example 11]	100 to 1000	100 to 1000	
Cc1cc(C)c(CNC(=O)c2cc3cccn3c(C(C)OCc3cccc(F)c3)c2C)c(=O)[nH]1 (stereo not shown) [Example 12]	100 to 1000	100 to 1000	
Cc1cc(C)c(CNC(=O)c2cc3cccn3c(C(C)OCc3c(F)cccc3F)c2C)c(=O)[nH]1 (stereo not shown) [Example 13]	100 to 1000	100 to 1000	
COc1cccc(COC(C)c2c(C)c(C(=O)NCc3c(C)cc(C)[nH]c3=O)cc3cccn23)c1 (stereo not shown) [Example 14, N-((4,6-dimethyl-2-oxo-1,2-dihydropyridin-3-yl)methyl)-5-(1-((3-methoxybenzyl)oxy)ethyl)-6-methylindolizine-7-carboxamide]	100 to 1000	100 to 1000	
Cc1cc(C)c(CNC(=O)c2cc3cccn3c(C(C)OCc3nccs3)c2C)c(=O)[nH]1 (stereo not shown) [Example 18, N-((4,6-dimethyl-2-oxo-1,2-dihydropyridin-3-yl)methyl)-6-methyl-5-(1-(thiazole-2-ylmethoxy)ethyl)indolizine-7-carboxamide]	100 to 1000	< 100	
Cc1cc(C)c(CNC(=O)c2cc3cccn3c(C(C)OCc3ccsc3)c2C)c(=O)[nH]1 (stereo not shown) [Example 19, N-((4,6-dimethyl-2-oxo-1,2-dihydropyridin-3-yl)methyl)-6-methyl-5-(1-(thiophene-3-ylmethoxy)ethyl)indolizine-7-carboxamide]	100 to 1000	100 to 1000	
Cc1cc(C)c(CNC(=O)c2cc3cccn3c(C(C)OCc3ccn(C)n3)c2C)c(=O)[nH]1 (stereo not shown) [Example 20]	100 to 1000	100 to 1000	
Cc1cc(C)c(CNC(=O)c2cc3cccn3c(C(C)c3ccccc3)c2C)c(=O)[nH]1 (stereo not shown) [Example 25, N-((4,6-dimethyl-2-oxo-1,2-dihydropyridin-3-yl)methyl)-6-methyl-5-(1-phenylethyl)indolizine-7-carboxamide]	< 100	100 to 1000	
Cc1cc(C)c(CNC(=O)c2cc3cc(Br)cn3c(N(C)C3CCOCC3)c2C)c(=O)[nH]1 [Example 57]	< 100		
COc1cc(C)[nH]c(=O)c1CNC(=O)c1cc2cc(-c3cncn3C)cn2c(C(C)N2CCC(N(C)C)CC2)c1C (stereo not shown) [Example 135, 5-(1-(4-(dimethylamino)piperidin-1-yl)ethyl)-N-((4-methoxy-6-methyl-2-oxo-1,2-dihydropyridin-3-yl)methyl)-6-methyl-2-(1-methyl-1H-imidazol-5-yl)indolizine-7-carboxamide]		< 100	
Cc1cc(C)c(CNC(=O)c2cc3cc(-c4cncn4C)cn3c(C(C)N3CCN(CC(F)(F)F)CC3)c2C)c(=O)[nH]1 (stereo not shown) [Example 136, N-((4,6-dimethyl-2-oxo-1,2-dihydropyridin-3-yl)methyl)-6-methyl-2-(1-methyl-1H-imidazol-5-yl)-5-(1-(4-(2,2,2-trifluoroethyl)piperazin-1-yl)ethyl)indolizine-7-carboxamide]		< 100	
COc1cc(C)[nH]c(=O)c1CNC(=O)c1cc2cc(-c3cncn3C)cn2c(C(C)N2CCN(CC(F)(F)F)CC2)c1C (stereo not shown) [Example 137, N-((4-Methoxy-6-methyl-2-oxo-1,2-dihydropyridin-3-yl)methyl)-6-methyl-2-(1-methyl-1H-imidazol-5-yl)-5-(1-(4-(2,2,2-trifluoroethyl)piperazin-1-yl)ethyl)indolizine-7-carboxamide]			< 100

Compound	IC50 [1] [nM]	IC50 [2, 3] [nM]	IC50 [2] [nM]
Cc1cc(C)c(CNC(=O)c2cc3cc(-c4cncs4)cn3c(C(C)N3CCC(N(C)C)CC3)c2C)c(=O)[nH]1 (stereo not shown) [Example 138]		< 100	
Cc1cc(C)c(CNC(=O)c2cc3cc(-c4cncs4)cn3c(C(C)N3CCC(N(C)C)CC3)c2C)c(=O)[nH]1 (stereo not shown) [Example 139]			< 100
Cc1cc(C)c(CNC(=O)c2cc3cc(-c4cncs4)cn3c(C(C)N3CCN(CC(F)(F)F)CC3)c2C)c(=O)[nH]1 (stereo not shown) [Example 140]		100 to 1000	
Cc1cc(C)c(CNC(=O)c2cc3cc(-c4cncs4)cn3c(C(C)N3CCN(CC(F)(F)F)CC3)c2C)c(=O)[nH]1 (stereo not shown) [Example 141, N-((4,6-dimethyl-2-oxo-1,2-dihydropyridin-3-yl)methyl)-6-methyl-2-(thiazole-5-yl)-5-(1-(4-(2,2,2-trifluoroethyl)piperazin-1-yl)ethyl)indolizine-7-carboxamide]		100 to 1000	
COc1cc(C)[nH]c(=O)c1CNC(=O)c1cc2cc(-c3cncs3)cn2c(C(C)N2CCN(CC(F)(F)F)CC2)c1C (stereo not shown) [Example 142, N-((4-methoxy-6-methyl-2-oxo-1,2-dihydropyridin-3-yl)methyl)-6-methyl-2-(thiazole-5-yl)-5-(1-(4-(2,2,2-trifluoroethyl)piperazin-1-yl)ethyl)indolizine-7-carboxamide]		< 100	
COC1CCN(C(C)c2c(C)c(C(=O)NCc3c(C)cc(C)[nH]c3=O)cc3cc(Br)cn23)CC1 (stereo not shown) [Example 143, 2-Bromo-N-((4,6-dimethyl-2-oxo-1,2-dihydropyridin-3-yl)methyl)-6-methyl-5-(1-(4-methoxypiperidin-1-yl)ethyl)indolizine-7-carboxamide]			100 to 1000
Cc1cc(C)c(CNC(=O)c2cc3cc(Br)cn3c(C(C)N3CCC(N4CCCC4)CC3)c2C)c(=O)[nH]1 (stereo not shown) [Example 144, 2-bromo-N-((4,6-dimethyl-2-oxo-1,2-dihydropyridin-3-yl)methyl)-5-(1-(4-hydroxypiperidin-1-yl)ethyl)-6-indolizine-7-carboxamide]		100 to 1000	
Cc1cc(C)c(CNC(=O)c2cc3cc(Br)cn3c(C(C)N3CCC(N4CCCC4)CC3)c2C)c(=O)[nH]1 (stereo not shown) [Example 145, 2-bromo-N-((4,6-dimethyl-2-oxo-1,2-dihydropyridin-3-yl)methyl)-6-methyl-5-(1-(4-(pyrrolidin-1-yl)piperidin-1-yl)ethyl)indolizine-7-carboxamide]		100 to 1000	
Cc1cc(C)c(CNC(=O)c2cc3cc(Br)cn3c(C(C)N3CCC(C#N)CC3)c2C)c(=O)[nH]1 (stereo not shown) [Example 146, 2-bromo-5-(1-(4-cyanopiperidin-1-yl)ethyl)-N-((4,6-dimethyl-2-oxo-1,2-dihydropyridin-3-yl)methyl)-6-methylindolizine-7-carboxamide]		100 to 1000	
(S)-1-Chloro-N-((4,6-dimethyl-2-oxo-1,2-dihydropyridin-3-yl)methyl)-6-methyl-5-(1-morphinolinylethyl)pyridazin-7-carboxamide or (R)-1-chloro-N-((4,6-dimethyl-2-oxo-1,2-dihydro)pyridin-3-yl)methyl)-6-methyl-5-(1-morphinolinylethyl)pyridazin-7-carboxamide [Compound 29]		100 to 1000	
(S)-1-Chloro-N-((4,6-dimethyl-2-oxo-1,2-dihydropyridin-3-yl)methyl)-6-methyl-5-(1-morphinolinylethyl)pyridazin-7-carboxamide or (R)-1-chloro-N-((4,6-dimethyl-2-oxo-1,2-dihydro)pyridin-3-yl)methyl)-6-methyl-5-(1-morphinolinylethyl)pyridazin-7-carboxamide [Example 28]		< 100	
N-((4,6-dimethyl-2-oxo-1,2-dihydropyridin-3-yl)methyl)-2-(3-((dimethylamino)methyl)phen yl))-6-methyl-5-(1-morpholineethyl)indolizine-7-amide [Example 74]		< 100	
N-((4,6-dimethyl-2-oxo-1,2-dihydropyridin-3-yl)methyl)-2-(4-((dimethylamino)methyl)phen yl))-6-methyl-5-(1-morpholinoethyl)indolizine-7-carboxamide [Example 75]		100 to 1000	
N-((4,6-dimethyl-2-oxo-1,2-dihydropyridin-3-yl)methyl)-6-methyl-5-(1-morpholinylethyl)-2-(1-ethyl-1H-pyrazole)indolizine-7-carboxamide [Example 113]		< 100	
N-((4-methoxy-6-methyl-2-oxo-1,2-dihydropyridin-3-yl)methyl)-6-methyl-1-(2-methylpyridin-3-yl)-5-(1-(4-(2,2,2-trifluoroethyl)piperazin-1-yl)ethyl)indolizine-7-carboxamide [Compound 166]		< 100	
